The IC50 is the concentration needed to halve the response being measured. Broadly, the inhibition is the share of the control response that was lost under treatment. As usually defined, the melting point is the temperature, or range, at which the solid turns liquid.

For six molecules, IC50, inhibition and melting point results are on record in patent publication US7700606B2, “Imidazole amines as inhibitors of β-secretase” (Wyeth LLC, priority 2006, dated 2010).

One data set concerns the target human BACE1 (Homo sapiens, UniProt P56817). Kind of data set: Fluorescent kinetic enzyme assay, inhibition of BACE1 (WABC-6 peptide substrate). It is filed as biochemical. As to conditions: 10 nM enzyme, 25 μM substrate, pH 4.5, room temperature. As to the method: (§1) Evaluation of the Enzyme Activity of Test Compounds and the Inhibition of hBACE1, MuBACE1 and hBACE2 by Test Compounds
Dilution and mixing steps: total reaction volume: 100 μL • 1. […] 100 μM substrate dilution in 1× PBS is prepared, • 4.
Fluorescence Readings: Readings at λex 320 nm and λem 420 nm are taken every 40-sec for 30 min at room temperature to determine the linear slope for substrate cleavage rate (vi).

A further data set deals with T1, human BACE2 (Homo sapiens, UniProt Q9Y5Z0).
T1 sequence (Q9Y5Z0 63-518): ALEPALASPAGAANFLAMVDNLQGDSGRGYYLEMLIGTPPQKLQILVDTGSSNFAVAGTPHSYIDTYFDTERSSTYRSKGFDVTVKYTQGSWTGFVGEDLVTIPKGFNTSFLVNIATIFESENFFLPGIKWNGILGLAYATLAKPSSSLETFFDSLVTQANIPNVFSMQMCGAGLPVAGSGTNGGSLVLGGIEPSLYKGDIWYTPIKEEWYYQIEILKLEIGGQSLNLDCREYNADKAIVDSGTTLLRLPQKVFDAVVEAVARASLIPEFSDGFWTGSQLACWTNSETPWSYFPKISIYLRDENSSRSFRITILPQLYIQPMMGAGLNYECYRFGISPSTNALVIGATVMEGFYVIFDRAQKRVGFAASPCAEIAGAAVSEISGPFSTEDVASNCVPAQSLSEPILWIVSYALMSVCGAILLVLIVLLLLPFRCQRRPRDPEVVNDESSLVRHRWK
Kind of data set: Fluorescent kinetic assay for human recombinant BACE 2 (WABC-6 peptide substrate). As to conditions: for IC50: 1.5 nM enzyme, 25 μM substrate, pH 4.5, room temperature. It counts as biochemical. How it is done: as §1
Assay Conditions: 10 nM human BACE1 (or 10 nM Murine BACE1, 1.5 nM human BACE2) 25 μM substrate (WABC-6, MW 1549.6, from AnaSpec); final buffer conditions: 50 mM Na-Acetate, pH 4.5, 0.05% CHAPS, 25% PBS; temperature: room temperature; reagent information: Na-Acetate: Aldrich, Cat.#24,124-5 CHAPS: Research Organics, Cat. #1304C 1× PBS: Mediatech (Cellgro), Cat#21-031-CV; peptide substrate AbzSEVNLDAEFRDpa: AnaSpec, Peptide Name: WABC-6; determination of stock substrate (AbzSEVNLDAEFRDpa) concentration: a 25 mM stock solution in dimethyl sulfoxide (DMSO) is prepared using the peptide weight and MW and diluted to 25 μM. The concentration is determined by absorbance at 354 nm using an extinction coefficient ε of 18172 M^−1 cm^−1, The substrate stock is stored in small aliquots at −80° C. [Substrate Stock]=ABS^354 nm*10^6/18172 (in mM)
Calculation of % Inhibition: % Inhibition=100*(1−vi/v0) • (vi=substrate cleavage rate in the presence of inhibitor, • v0=substrate cleavage rate in the absence of inhibitor) IC50 Determination: % Inhibition=[(B*IC50^n)+(100*I0^n)]/(IC50^n+I0^n), Fluorescent Kinetic Assay for Human Recombinant BACE 2
This assay is used to provide kinetic and selectivity parameters for the analyses of the tested compounds.
Materials and methods: final assay conditions: 10 nM human BACE1 (or 10 nM Murine BACE1, 1.5 nM human BACE2) 25 μM Substrate (WABC-6, MW 1549.6, from AnaSpec). Final buffer conditions: 50 mM Na-Acetate, pH 4.5, 0.05% CHAPS, 25% PBS. Temperature: room temperature. Reagent Information: Na-Acetate: Aldrich, Cat.#24,124-5 CHAPS: Research Organics, Cat. #1304C 1× PBS: Mediatech (Cellgro), Cat#21-031-CV Peptide Substrate AbzSEVNLDAEFRDpa: AnaSpec, Peptide Name: WABC-6
Determination of stock substrate (AbzSEVNLDAEFRDpa) concentration: A 25 mM stock solution in DMSO is prepared using the peptide weight and MW, and diluted to 25 μM. The concentration is determined by absorbance at 354 nm using an extinction coefficient ε of 18172 M^−1cm^−1. The substrate stock is stored in small aliquots at −80° C. [Substrate Stock]=ABS^354 nm*10^6/18172 (in mM)
Determination of stock enzyme concentration: The stock concentration of each enzyme is determined by ABS at 280 nm using ε of 64150 M^−1cm^−1 for hBACE1 and MuBACE1, 62870 M^−1cm^−1 for hBACE2 in 6 M guanidinium hydrochloride (from Research Organics, Cat. #5134G-2), pH 6. (The extinction coefficient ε^280 nm for each enzyme is calculated based on known amino acid composition and published extinction coefficients for Trp ([…]) and Tyr ([…]) residues (Anal. Biochem. 182, 319-326).)
Dilution and Mixing Steps: Total Reaction Volume: 100 μL • 1. 2× inhibitor dilutions in buffer A (66.7 mM Na-Acetate, pH 4.5, 0.0667% CHAPS) are prepared, • 2. 4× enzyme dilution in buffer A (66.7 mM Na-Acetate, pH 4.5, 0.0667% CHAPS) are prepared, • 3. 100 μM substrate dilution in 1× PBS, 50 μL 2× Inhibitor and 25 μL 100 μM substrate are added to each well of 96-well plate (from DYNEX Technologies, VWR #: 11311-046), then immediately 25 μL 4× enzyme is added to the inhibitor and substrate mixer and the fluorescence readings are initiated.
Fluorescence Readings: Readings at λex 320 nm, λem 420 nm are taken every 40-sec for 30 min at room temperature and to determine the linear slope for substrate cleavage rate (vi).
Analysis of calculation of % inhibition: % Inhibition=100*(1−vi/v0) • vi=substrate cleavage rate in the presence of inhibitor, • v0=substrate cleavage rate in the absence of inhibitor) • IC50 Determination: % Inhibition=((B*IC50^n)+(100*I0^n))/(IC50^n+I0^n),
Unless otherwise noted, the IC50 value represents the value obtained at […].

human BACE1, sequence (P56817 46-501): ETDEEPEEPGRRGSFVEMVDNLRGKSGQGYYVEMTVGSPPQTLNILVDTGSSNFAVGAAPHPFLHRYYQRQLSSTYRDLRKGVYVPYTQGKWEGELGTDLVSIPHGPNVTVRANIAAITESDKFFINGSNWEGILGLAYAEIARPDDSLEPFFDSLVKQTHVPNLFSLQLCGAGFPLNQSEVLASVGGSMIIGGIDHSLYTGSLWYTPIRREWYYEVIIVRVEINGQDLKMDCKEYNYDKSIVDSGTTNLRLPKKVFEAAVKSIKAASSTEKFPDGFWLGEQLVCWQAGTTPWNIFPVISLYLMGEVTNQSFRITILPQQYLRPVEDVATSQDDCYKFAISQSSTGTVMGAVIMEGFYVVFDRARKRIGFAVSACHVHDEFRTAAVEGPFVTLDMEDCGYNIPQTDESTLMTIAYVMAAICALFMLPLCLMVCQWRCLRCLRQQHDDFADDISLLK

`NC1=NC(c2ccncc2)(c2cccc(-c3cccnc3F)c2)C2=NCCCN12` (stereo not drawn) [Example 1, 8-[3-(2-Fluoropyridin-3-yl)phenyl]-8-pyridin-4-yl-2,3,4,8-tetrahydroimidazo[1,5-a]pyrimidin-6-amine] had a melting point of 125 to 131 °C. Also, the IC50 against human BACE1 turned out to be 520 nM. The inhibition at 25 µM on human BACE2 amounted to 51%.

For the molecule `CCc1cc(C2(c3cccc(-c4cccnc4F)c3)N=C(N)N3CCCN=C32)cc(CC)n1` (stereo not drawn) [Example 2, 8-(2,6-Diethylpyridin-4-yl)-8-[3-(2-fluoropyridin-3-yl)phenyl]-2,3,4,8-tetrahydroimidazo[1,5-a]pyrimidin-6-amine], the melting point lay in the range of 174 to 176 °C. Moreover, the IC50 at human BACE1 stood at 10 nM. For the same molecule, the inhibition at 25 µM at human BACE2 stood at 38%.

In the case of `CCn1cc(C2(c3cccc(-c4cccnc4F)c3)N=C(N)N3CCCN=C32)cn1` (stereo not drawn) [Example 3, 8-(1-Ethyl-1H-pyrazol-4-yl)-8-[3-(2-fluoropyridin-3-yl)phenyl]-2,3,4,8-tetrahydroimidazo[1,5-a]pyrimidin-6-amine], the melting point was in the range of 91 to 115 °C. This molecule also gave an IC50 on human BACE1 of 90 nM. At human BACE2, the IC50 is 3520 nM.

As to `NC1=NC(c2cccc(-c3cccnc3F)c2)(c2cnn(CC(F)(F)F)c2)C2=NCCCN12` (stereo not drawn) [Example 4, 8-[3-(2-Fluoropyridin-3-yl)phenyl]-8-[1-(2,2,2-trifluoroethyl)-1H-pyrazol-4-yl]-2,3,4,8-tetrahydroimidazo[1,5-a]pyrimidin-6-amine], the melting point is 106 to 116 °C. The molecule further came in with an IC50 against human BACE1 of 80 nM. Further, the half-maximal inhibitory concentration (IC50) on human BACE2 was 5120 nM.

`NC1=NC(c2ccc(OC(F)(F)F)cc2)(c2cccc(-c3cccnc3F)c2)C2=NOCCN12` (stereo not drawn) [Example 5, 8-[3-(2-Fluoropyridin-3-yl)phenyl]-8-[4-(trifluoromethoxy)-phenyl]-3,4-dihydro-8H-imidazo[5,1-c][1,2,4]oxadiazin-6-amine] came in with a melting point of 102 to 117 °C. This molecule registered an IC50 against human BACE1 of 30 nM. Further, the half-inhibitory concentration (IC50) at human BACE2 was 2020 nM.

Molecule `NC1=NC(c2ccc(OC(F)(F)F)cc2)(c2cccc(-c3cncc(F)c3)c2)C2=NCCON12` (stereo not drawn) [Example 6, 8-[3-(5-Fluoropyridin-3-yl)phenyl]-8-[4-(trifluoromethoxy)phenyl]-2,8-dihydro-3H-imidazo[1,5-b][1,2,4]oxadiazin-6-amine] showed a melting point of 120 to 135 °C. At human BACE1, this molecule returned a 50% inhibitory concentration (IC50) of 50 nM. For the same molecule, on human BACE2, the IC50 amounted to 1190 nM.
